Data: patent US20250290074A1, “TARGETED TREATMENT OF SPLICEOPATHY-INDUCED NEUROLOGICAL DISORDERS” (Auttx, LLC, priority 2022, published 2025)
Like-named read-outs stand apart in the source and are kept apart here. Strand notation (5' to 3'): a small letter for the sugar, then the base; units joined by * are phosphorothioate-linked, units joined directly phosphodiester-linked; [ ] holds rarer units or linkages, { } end groups; capitals alone tell only the bases. e = 2'-O-(2-methoxyethyl) (MOE); [5mC] = 5-methylcytosine

Assays:
cancer = details: literature; cited from earlier work
[1] = U.S. Pat. No. 3,995,061, cited from earlier work; for toxicity: administered orally to human
[2] = cited from earlier work; for toxicity (LD50): IP or oral administration, U.S. Pat. No. 3,995,061, FIGS. 15A and 15B; for toxicity (shown to be non-toxic): in vivo
[3] = tested on: vascular endothelial growth factor (VEGF); details: Jeong J. H. et al. 2011; cited from earlier work
[4] = tested on: glucose transporter 1 (GLUT-1); details: Jeong J. H. et al. 2011; cited from earlier work
[5] = mouse, in vivo, po; cited from earlier work
[6] = rat, in vivo, po; cited from earlier work
HNRNPL = details: Gene HNRNPL; cited from earlier work
TDP-43 aggregation = details: iPS cell derived motor neurons, sporadic ALS; Burkhardt et al. 2013; cited from earlier work
[7] = tested on: human hnRNP L (hsHNRNP L) mRNA; assay: 5-point dose response (DRC) of ASOs, hnRNP L mRNA by branched DNA assay in BE(2)-M17 cells; type: cell-based; details: 24 h; for max. upregulation [%] (MV normalized hsHNRNP L/hsGAPDH): Lipofectamine3000, highest 120 nM, four 4-fold dilutions, bDNA, negative controls set to 100%; for EC50: hsHNRNP L mRNA upregulation, XLfit
Source text: Data were generated in biological quadruplicates. […] No significant decrease in hsGAPDH mRNA levels was observed.
Details and data are shown in Table 9A-9B, FIG. 24, and FIG. 25A-25E. In some cases, there was dose dependent hsHNRNP L on-target mRNA upregulation to varying degrees when cells were transfected with ASO compounds of interest.

hsHNRNP L mRNA = assay: Time-course experiment, ASOs at 30 nM, hnRNP L mRNA by bDNA in BE(2)-M17 cells; type: cell-based, Homo sapiens; details: 30 nM ASO, mock controls set to 100%, incubations 24 h, 48 h, 72 h, time point not given
Description: Lipofectamine3000 (LF3000) was again used as the transfection agent. The transfection mixture was prepared identically on three plates. […] In this case, no outliers were removed. Data were generated in biological quadruplicates.
FIG. 26 includes a comparison of results from this study next to results from Example 7. Observing the results after 24 h incubation, similar data from the analysis in Example 7 were reproduced here.

hnRNP L [8] = details: cited from earlier work; for increase in the levels of hnRNP L: human osteosarcoma cells (U2OS)
hnRNP L [9] = assay: Western blot of hnRNP L protein in rat primary cortical neurons after ASC treatment; type: cell-based; details: 10^−7 M or 10^−6 M ASC, FIG. 14
Description: (§1) FIG. 14 is a gel image showing a comparison of hnRNP L protein levels in rat primary cortical neurons with or without ASC treatments at different doses. The rat neurons were treated with 10^−7 M or 10^−6 M ASC, or not treated as control (“Cont.”), and then lysed for western blot detection of protein expression levels of hnRNP L (the upper panel). The arrow points to hnRNP L protein bands (appears as a triplet). […] FIG. 14B is a gel image showing elevation of hnRNP L levels after ASC treatment in SH-SY5Y human neuroblastoma cells (CLT results).
(§2) Such function of ASC was also found in human osteosarcoma cells (about 10-fold) and multiple disease models, see PCT publication no. WO/2019/236750, which is incorporated by reference herein in its entirety.

hnRNP L [10] = assay: hnRNP L levels after ASC treatment in SH-SY5Y human neuroblastoma cells; type: cell-based; details: FIG. 14B
Description: as §1

hnRNP L [11] = assay: hnRNP L expression in human differentiated myoblasts after ASC treatment; type: cell-based
Source text: as §2

## CC(C=CC1(C)C(C)CCC(=O)C1C)=CCc1c(O)c(Br)c(C)c(C=O)c1O (centres unmarked) [3-bromoascochlorin, reference compound]
cancer
  antitumorigenic / anti-cancer properties: anti-cancer properties

## CCOc1c(Cl)c(C)c(C=O)c(O)c1C/C=C(C)/C=C/C1(C)C(C)CCC(=O)C1C (centres unmarked) [4-O-ethyl-ascochlorin]
[1]
  toxicity: low toxicity
[2]
  toxicity (LD50): low toxicity

## COc1c(Cl)c(C)c(C=O)c(O)c1C/C=C(C)/C=C/[C@@]1(C)[C@H](C)CCC(=O)[C@@H]1C [MAC, 4-O-methylascochlorin]
cancer
  antitumorigenic / anti-cancer properties: antitumorigenic properties
[3]
  expression of VEGF: increases
[1]
  tolerability in clinical trials: well tolerated
  toxicity: low toxicity
[4]
  expression of GLUT-1: increases
[2]
  toxicity (LD50): low toxicity
[5]
  toxicity: low toxicity
[6]
  toxicity: low toxicity

## C=C1CC[C@H](O)C(C)(C)[C@@H]1CC/C(C)=C/Cc1c(O)c(Cl)c(C)c(C=O)c1O [acremochlorin A, reference compound]
cancer
  antitumorigenic / anti-cancer properties: anti-cancer properties

## C/C(=C\Cc1c(O)c(Cl)c(C)c(C=O)c1O)CC/C=C(\C)[C@@H]1CC(=O)C(C)(C)O1 [ascofuranone]
cancer
  antitumorigenic / anti-cancer properties: antitumorigenic properties
[2]
  toxicity (shown to be non-toxic): non-toxic

## C[C@H](CS)C(=O)N1CCC[C@H]1C(=O)O [captopril]
HNRNPL
  Source (DSigDB signature, association with increased hnRNP L levels): D3(UP)

## C[C@H]1O[C@@H](O[C@H]2[C@@H](O)C[C@H](O[C@H]3[C@@H](O)C[C@H](O[C@H]4CC[C@@]5(C)[C@H](CC[C@@H]6[C@@H]5C[C@@H](O)[C@]5(C)[C@@H](C7=CC(=O)OC7)CC[C@]65O)C4)O[C@@H]3C)O[C@@H]2C)C[C@H](O)[C@@H]1O [digoxin]
TDP-43 aggregation
  hit in screen for compounds reducing TDP-43 aggregation: hits confirmed in dose response assays
HNRNPL
  Source (DSigDB signature, association with increased hnRNP L levels): D3(UP)

## CCc1c2c(nc3ccc(OC(=O)N4CCC(N5CCCCC5)CC4)cc13)-c1cc3c(c(=O)n1C2)COC(=O)[C@]3(O)CC [irinotecan]
HNRNPL
  Source (DSigDB signature, association with increased hnRNP L levels): D3(UP)

## CN(C)C(=O)Oc1cccc([N+](C)(C)C)c1 [neostigmine bromide]
HNRNPL
  Source (DSigDB signature, association with increased hnRNP L levels): D3(UP)

## C[C@@H]1O[C@@H](O[C@@H]2C=C3CC[C@@H]4[C@H](CC[C@]5(C)[C@@H](c6ccc(=O)oc6)CC[C@]45O)[C@@]3(C)CC2)[C@H](O)[C@H](O)[C@H]1O [proscillaridin]
TDP-43 aggregation
  hit in screen for compounds reducing TDP-43 aggregation: hits confirmed in dose response assays
HNRNPL
  Source (DSigDB signature, association with increased hnRNP L levels): D3(UP)

## Skip-6A-18: ASO TACCATTGGACGCTTCAACAGT (SEQ ID NO: 67), fully 2′-MOE, 5′-methyl C, phosphorothioate; exon 6A (antisense eT*eA*e[5mC]*e[5mC]*eA*eT*eT*eG*eG*eA*e[5mC]*eG*e[5mC]*eT*eT*e[5mC]*eA*eA*e[5mC]*eA*eG*eT; listed as Homo sapiens)
[7]
  max. upregulation [%] (MV normalized hsHNRNP L/hsGAPDH): 47.3%
  EC50: 9.1 nM
hsHNRNP L mRNA
  MV normalized hsHNRNP L/hsGAPDH: 42.7%

## Skip-6A-19: ASO TTCTCTTACCATTGGACGCTTC (SEQ ID NO: 68), fully 2′-MOE, 5′-methyl C, phosphorothioate; exon 6A (antisense eT*eT*e[5mC]*eT*e[5mC]*eT*eT*eA*e[5mC]*e[5mC]*eA*eT*eT*eG*eG*eA*e[5mC]*eG*e[5mC]*eT*eT*e[5mC]; listed as Homo sapiens)
[7]
  max. upregulation [%] (MV normalized hsHNRNP L/hsGAPDH): 51.8%
  EC50: 7.36 nM
hsHNRNP L mRNA
  MV normalized hsHNRNP L/hsGAPDH: 62.4%

## Skip-6A-20: ASO CTGTATTTTCTCTTACCATTGG (SEQ ID NO: 69), fully 2′-MOE, 5′-methyl C, phosphorothioate; exon 6A (antisense e[5mC]*eT*eG*eT*eA*eT*eT*eT*eT*e[5mC]*eT*e[5mC]*eT*eT*eA*e[5mC]*e[5mC]*eA*eT*eT*eG*eG; listed as Homo sapiens)
[7]
  max. upregulation [%] (MV normalized hsHNRNP L/hsGAPDH): 71.6%
  EC50: 5.04 nM
hsHNRNP L mRNA
  MV normalized hsHNRNP L/hsGAPDH: 68.3%

## ascochlorin
cancer
  antitumorigenic / anti-cancer properties: antitumorigenic properties
hnRNP L [8]; Kang J. H. et al. J Proteome Res. 2006
  increase of hnRNP L levels: ~12 ×
hnRNP L [8]
  increase in the levels of hnRNP L: ≥ 10 fold
hnRNP L [8]; listed as ASC
  increase in the levels of hnRNP L: about 10 fold
hnRNP L [9]
  hnRNP L expression levels: increased
hnRNP L [10]
  hnRNP L levels: elevation
hnRNP L [11]
  increase of hnRNP L expression levels: about 6 fold
[2]
  toxicity (shown to be non-toxic): non-toxic
